Results on 4 compounds are retold here after PMC5923171, “Novel Zinc-Attenuating Compounds as Potent Broad-Spectrum Antifungal Agents with In Vitro and In Vivo Efficacy” (Antimicrobial Agents and Chemotherapy, 2018).

As usually defined, the MIC is the smallest concentration in the dilution series that meets the test's criterion for growth inhibition. A low value points to a more susceptible organism.

Values after ≈ are worked out from the molar mass of the structure shown.

For data set [1], the system named is A. fumigatus. The following applies: combination with amphotericin B lipid complex (ABLC), compared with either agent alone; cited from earlier work.
Data set [2] concerns invasive pulmonary aspergillosis. Further details: method as in PMID 26438863. Particulars: after 7 days, compared to vehicle treatment; cited from earlier work.
Data set [3] relates to A. fumigatus. Further details: method as in PMID 27401578. Particulars: cited from earlier work.
Data set [4] can be described thus: Potentiometric titration, deprotonation constant. It is filed as physicochemical. The following applies: DMSO-water (70:30, vol/vol), 25°C, 0.1 M NaClO4. Here is the method: The Zn^2+-binding properties of ZAC307 and ZAC989 were further evaluated using a potentiometric assay, where pH is measured as a function of base (NaOH) added to the compound in either the absence or presence of metal. […] To determine the deprotonation constant, a solution of 1 mM ZAC307 or ZAC989 was titrated with 0.3 M NaOH at constant ionic strength (Fig. 2A and B). In a second run, the same titration was performed in the presence of 0.5 eq of Zn^2+ for ZAC307 and ZAC989. A shift in the pH curve in the presence of the metal (ZAC307, 0.5 eq of Zn^2+ [Fig. 2A]) compared to the absence of the metal (ZAC307 [Fig. 2A]) indicates binding of Zn^2+ to the compound. The measured pH data were analyzed with the Hyperquad program suite, taking into account all relevant equilibrium constants, including also the constants for metal hydroxylation. The analysis provides the pKa values and metal complex stability constants, as well as ligand-metal complex speciation calculation, indicating how many ZAC molecules are involved in coordinating the Zn^2+ ion at different pH values. […] ZAC989 bound copper with the formation constants log β1, log β2, and log β3 of 7.83, 13.37, and 20.62, respectively. The most dominant ZAC989-copper stoichiometry was a 3:1 stoichiometry (Fig. 2E).
Potentiometric measurements were carried out in DMSO-water (70:30, vol/vol) at 25°C as described previously ([22]). […]

In a further data set the test system is C. krusei ATCC 6258. Description: Antifungal susceptibility testing (MIC). It is filed as cell-based, Candida krusei. The following applies: Pichia kudriavzevii, ATCC6258; at least 50% growth inhibition, RPMI, 24 h, 34°C. Here is the method:
Antifungal susceptibility testing was carried out as described previously ([38], [39]), with a few modifications. Briefly, for each yeast or mold growth inhibition assay, frozen stocks of yeast cells or spores were diluted to a final concentration of 0.5 × 10^5 to 2.5 × 10^5 CFU/ml in sterile water. ZAC989, ZAC307, and ZAC623 were dissolved in DMSO to 10 mM stocks from which half-log serial dilutions were prepared. Growth assays were subsequently performed by pipetting 3 μl of compound dissolved in DMSO (giving a final concentration of 1.5% DMSO), 100 μl of cell-spore suspension, and 97 μl of 2× RPMI medium (20.8 g/liter of RPMI 1640 medium, 69.06 g/liter of morpholinepropanesulfonic acid [MOPS], 36 g/liter of glucose) into a microtiter plate that was incubated for 24 h (yeasts) or 48 to 72 h (molds) at 34°C. Fungal growth was determined spectrophotometrically by optical density reading of each well at a wavelength of 492 nm on a Victor X5 (Perkin-Elmer) plate reader. […] Standard errors between repeated experiments were generally below 5%. The growth effect of exogenous addition of various divalent metals was evaluated by performing the antifungal susceptibility assay in the presence of 5 μM ZAC989 or ZAC307 and with increasing concentrations (0.003 to 50 μM) of ZnSO4, CuSO4, (NH4)2Fe(SO4)2, MgCl2, and CaCl2.

Data set [5] concerns A. fumigatus AF721 (ΔzrfA ΔzrfB ΔzrfC). Description: Growth capacity in sRPMI medium, 24-well plates. The data set is classed as cell-based, Aspergillus fumigatus.

With `O=C(O)CN(CCN(CC(=O)O)CC(=O)O)CC(=O)O` [EDTA], the “survival times and tissue burden” value with A. fumigatus [1] is “improved survival times and a lower tissue burden of A. fumigatus”.

With `c1ccc(CN(CCN(Cc2ccccn2)Cc2ccccn2)Cc2ccccn2)nc1` [TPEN, N,N,N’,N’-tetrakis(2-pyridylmethyl)-ethylenediamine], the survival entry in data set [2] is reported as “significantly increase survival”. For the same compound, the survival times entry in the data set with A. fumigatus [3] (in combination with caspofungin, compared to either drug alone, murine models of invasive aspergillosis) is listed as “significantly increased survival times”. Moreover, the “survival and fungal burden” value with A. fumigatus [3] (monotherapy) is “significant improvements in survival with concomitant reduction in fungal burden”.

For `CN(C)c1cc(-n2nc(-c3ccccc3)cc2O)ncn1` [ZAC307, 2-[6-(dimethylamino)pyrimidin-4-yl]-5-phenyl-pyrazol-3-ol], in data set [4], the pKa was found to be 6.84. The MIC with C. krusei ATCC 6258 came out at 0.4 µg/mL (≈ 1.42 µM).

`Cc1cc(O)n(-c2cc(N3CC[C@H](Oc4cnccc4C#N)C3)ncn2)n1` [ZAC989, 3-[(3S)-1-[6-(5-hydroxy-3-methyl-pyrazol-1-yl)pyrimidin-4-yl]pyrrolidin-3-yl]oxy-pyridine-4-carbonitrile]: the pKa in data set [4] was 7.7. Also, inhibition of growth with C. krusei ATCC 6258 (MIC) required 0.8 µg/mL (≈ 2.2 µM). Further, in data set [5], the “growth capacity in the presence of 50 μM zinc (in words)” value was “noticeably inhibited the growth capacity of AF721”.
